Assay results published in PubChem BioAssay AID206 (DTP/NCI, 2004).
Several values for one entry are separate records, joined by “and”; a condition that tells them apart may be missing. Equal values may be shown once. Inconclusive results are not listed.

Test system: nude mice, HT29 intrarenal xenograft, tumor weight T/C
Test: NCI In Vivo Anticancer Drug Screen. Data for tumor model HT29;CX-1 Human Adenocarcinoma (MER+) (intrarenal inoculation) in NU/NU Swiss (nude) mice
Details: endpoint: mean tumor weight change, higher = larger tumour
Procedure, shortened: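 Tumor-bearing mice received test compound or vehicle, and tumor size or survival was recorded. Values are the treated-group measurement divided by the vehicle-treated control measurement.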

[1] = dose: 150.0 mg/kg/injection, schedule: Q04DX004 (sc), vehicle: Klucel (hydroxypropylcellulose) (HPC)
[2] = dose: 300.0 mg/kg/injection, schedule: Q04DX004 (sc), vehicle: Klucel (hydroxypropylcellulose) (HPC)
[3] = dose: 600.0 mg/kg/injection, schedule: Q04DX004 (sc), vehicle: Klucel (hydroxypropylcellulose) (HPC)

In the case of `CC(C)(C)c1ccc(CN2CCN(C(c3ccccc3)c3ccc(Cl)cc3)CC2)cc1` (stereo unspecified), the T/C (dose: 75.0 mg/kg/injection, schedule: Q04DX004 (sc), vehicle: Klucel (hydroxypropylcellulose) (HPC)) is reported as 78 % of control, the T/C [1] is reported as 74 % of control and the T/C [2] is reported as 88 % of control. The T/C [3] was 93 % of control.
`CNC(=O)n1c(N)nc(-c2ccccc2)c1-c1ccccc1` was tested, and the T/C (dose: 300.0 mg/kg/injection, schedule: Q04DX004 (sc), vehicle: saline with Tween-80) was 92 % of control and the T/C (dose: 600.0 mg/kg/injection, schedule: Q04DX004 (sc), vehicle: saline with Tween-80) was 38 % of control.
`Nc1nc(=S)c2ncn(C3CC(O)C(CO)O3)c2[nH]1` (stereo unspecified) was tested, and the T/C (dose: 1.8 mg/kg/injection, schedule: Q04DX004 (sc), vehicle: saline with Tween-80) was 119 % of control, the T/C (dose: 3.75 mg/kg/injection, schedule: Q04DX004 (sc), vehicle: saline with Tween-80) was 105 % of control and the T/C (dose: 7.5 mg/kg/injection, schedule: Q04DX004 (sc), vehicle: saline with Tween-80) was 107 % of control. The T/C (dose: 100.0 mg/kg/injection, schedule: Q01DX010 (sc), vehicle: Klucel (hydroxypropylcellulose) (HPC)) was 114 % of control.
For `c1ccc2c(NCCCCCCCCNc3c4ccccc4nc4ccccc34)c3ccccc3nc2c1`, the T/C (dose: 10.0 mg/kg/injection, schedule: Q01DX010 (sc), vehicle: Klucel (hydroxypropylcellulose) (HPC)) was 67 % of control, the T/C (dose: 20.0 mg/kg/injection, schedule: Q01DX010 (sc), vehicle: Klucel (hydroxypropylcellulose) (HPC)) was 44 % of control and the T/C (dose: 40.0 mg/kg/injection, schedule: Q01DX010 (sc), vehicle: Klucel (hydroxypropylcellulose) (HPC)) was 82 % of control.
`C=C(NC(=O)C(=C)NC(=O)c1csc(C2=NC3c4csc(n4)C4NC(=O)c5csc(n5)C(C(C)(O)C(C)O)NC(=O)C5CSC(=N5)/C(=C/C)NC(=O)C(C(C)O)NC(=O)c5csc(n5)C3(CC2)NC(=O)C(C)NC(=O)C(=C)NC(=O)C(C)NC(=O)C(C(C)CC)NC2C=Cc3c(C(C)O)cc(nc3C2O)C(=O)OC4C)n1)C(N)=O` (stereo unspecified) was tested, and the T/C (dose: 200.0 mg/kg/injection, schedule: Q01DX010 (sc), vehicle: Klucel (hydroxypropylcellulose) (HPC)) was 34 % of control, the T/C (dose: 800.0 mg/kg/injection, schedule: Q01DX010 (sc), vehicle: Klucel (hydroxypropylcellulose) (HPC)) was 27 % of control and 49 % of control and the T/C (dose: 3200.0 mg/kg/injection, schedule: Q01DX010 (sc), vehicle: Klucel (hydroxypropylcellulose) (HPC)) was 50 % of control.
In the case of `CCCCCCCCCCC(OC(C)=O)C1CCC(C2CCC(C(O)CCCCCCCCCCCCC3C=C(C)OC3=O)O2)O1` (stereo unspecified), the T/C (dose: 25.0 mg/kg/injection, schedule: Q04DX004 (sc), vehicle: water) is reported as 119 % of control and the T/C (dose: 50.0 mg/kg/injection, schedule: Q04DX004 (sc), vehicle: water) is reported as 92 % of control.
With `NCCc1ccc(O)c(O)c1` the T/C (dose: 200.0 mg/kg/injection, schedule: Q01DX010 (sc), vehicle: saline) was 78 % of control.
In the case of `N#CC(=C1C=CC(=NO)C=C1)c1ccc(Cl)cc1`, the T/C (dose: 50.0 mg/kg/injection, schedule: Q04DX004 (sc), vehicle: saline with Tween-80) is reported as 80 % of control, the T/C (dose: 100.0 mg/kg/injection, schedule: Q04DX004 (sc), vehicle: saline with Tween-80) is reported as 90 % of control and the T/C (dose: 400.0 mg/kg/injection, schedule: Q04DX004 (sc), vehicle: saline with Tween-80) is reported as 113 % of control.
For `CCCCNCCCNCCCNC(=O)c1csc(-c2csc(CCNC(=O)C(NC(=O)C(C)C(O)C(C)NC(=O)C(NC(=O)c3nc(C(CC(N)=O)NCC(N)C(N)=O)nc(N)c3C)C(OC3OC(CO)C(O)C(O)C3OC3OC(CO)C(O)C(OC(N)=O)C3O)c3cnc[nH]3)C(C)O)n2)n1` (stereo unspecified), the T/C (dose: 8.0 mg/kg/injection, schedule: Q01DX010 (sc), vehicle: saline) was 69 % of control and 83 % of control, the T/C (dose: 16.0 mg/kg/injection, schedule: Q01DX010 (sc), vehicle: saline) was 76 % of control and 80 % of control and the T/C (dose: 32.0 mg/kg/injection, schedule: Q01DX010 (sc), vehicle: saline) was 66 % of control and 68 % of control. The T/C (dose: 64.0 mg/kg/injection, schedule: Q01DX010 (sc), vehicle: saline) was 23 % of control and 25 % of control.
With `CCN=C=NCCCN(C)C` the T/C (dose: 25.0 mg/kg/injection, schedule: Q04DX004 (sc), vehicle: saline) was 90 % of control, the T/C (dose: 50.0 mg/kg/injection, schedule: Q04DX004 (sc), vehicle: saline) was 78 % of control and the T/C (dose: 100.0 mg/kg/injection, schedule: Q04DX004 (sc), vehicle: saline) was 38 % of control.
For `N=[N+]=CC(=O)OCC(N)C(=O)O` (stereo unspecified), the T/C (dose: 3.13 mg/kg/injection, schedule: Q01DX010 (sc), vehicle: saline) was 212 % of control, the T/C (dose: 6.25 mg/kg/injection, schedule: Q01DX010 (sc), vehicle: saline) was 87 % of control and the T/C (dose: 12.5 mg/kg/injection, schedule: Q01DX010 (sc), vehicle: saline) was 85 % of control. The T/C (dose: 25.0 mg/kg/injection, schedule: Q01DX010 (sc), vehicle: saline) was 123 % of control.
For `CC(C)=CCNc1ncnc2c1ncn2C1OC(CO)C(O)C1O` (stereo unspecified), the T/C (dose: 400.0 mg/kg/injection, schedule: Q04DX004 (sc), vehicle: suspension in saline) was 62 % of control.
In the case of `O=NN(CCCl)C(=O)Oc1cc(Cl)c(Cl)cc1Cl`, the T/C [1] is reported as 94 % of control, the T/C [2] is reported as 83 % of control and the T/C [3] is reported as 92 % of control.
`CCCCCc1cc(/C=C2/N=C(c3ccc[nH]3)C=C2OC)[nH]c1C` was tested, and the T/C (dose: 4.0 mg/kg/injection, schedule: Q04DX004 (sc), vehicle: saline with Tween-80) was 81 % of control, the T/C (dose: 8.0 mg/kg/injection, schedule: Q04DX004 (sc), vehicle: saline with Tween-80) was 68 % of control and the T/C (dose: 16.0 mg/kg/injection, schedule: Q04DX004 (sc), vehicle: saline with Tween-80) was 55 % of control and 72 % of control. The T/C (dose: 32.0 mg/kg/injection, schedule: Q04DX004 (sc), vehicle: saline with Tween-80) was 76 % of control.
In the case of `COc1cc2c(cc1O)N=C[C@@H]1CCC(O)N1C2=O` (mixture of isomers), the T/C (dose: 10.0 mg/kg/injection, schedule: Q04DX004 (sc), vehicle: suspension in saline) is reported as 64 % of control.
`O=C1NC2(CCCCC2)C(=O)N1CCN(CCCl)CCCl` was tested, and the T/C (dose: 6.0 mg/kg/injection, schedule: Q01DX010 (sc), vehicle: saline) was 64 % of control, the T/C (dose: 24.0 mg/kg/injection, schedule: Q01DX010 (sc), vehicle: saline) was 21 % of control and 23 % of control and the T/C (dose: 48.0 mg/kg/injection, schedule: Q01DX010 (sc), vehicle: saline) was 23 % of control.
With `NC(Cc1ccc(N(CCCl)CCCl)cc1)C(=O)O` (stereo unspecified) the T/C (dose: 5.0 mg/kg/injection, schedule: Q04DX004 (sc), vehicle: Klucel (hydroxypropylcellulose) (HPC)) was 70 % of control, the T/C (dose: 10.0 mg/kg/injection, schedule: Q04DX004 (sc), vehicle: Klucel (hydroxypropylcellulose) (HPC)) was 36 % of control and 53 % of control and the T/C (dose: 20.0 mg/kg/injection, schedule: Q04DX004 (sc), vehicle: Klucel (hydroxypropylcellulose) (HPC)) was -16 % of control.
`O=C(O)CCCc1ccc(N(CCCl)CCCl)cc1` was tested, and the T/C (dose: 0.13 mg/kg/injection, schedule: Q04DX004 (ip), vehicle: Klucel (hydroxypropylcellulose) (HPC)) was 88 % of control, the T/C (dose: 0.2 mg/kg/injection, schedule: Q04DX004 (ip), vehicle: Klucel (hydroxypropylcellulose) (HPC)) was 109 % of control and the T/C (dose: 0.3 mg/kg/injection, schedule: Q04DX004 (ip), vehicle: Klucel (hydroxypropylcellulose) (HPC)) was 83 % of control.
For `COc1cc2c(c(OC)c1OC)-c1c(cc3c(c1OC)OCO3)CC(C)C(C)(O)C2OC(=O)c1ccccc1` (stereo unspecified), the T/C (dose: 75.0 mg/kg/injection, schedule: Q04DX004 (sc), vehicle: saline + alcohol) was 63 % of control.
With `ClCCCN1CCN(CCCCl)CC1` the T/C (dose: 62.5 mg/kg/injection, schedule: Q04DX004 (sc), vehicle: distilled water + alcohol) was 52 % of control and the T/C (dose: 125.0 mg/kg/injection, schedule: Q04DX004 (sc), vehicle: distilled water + alcohol) was 17 % of control.
In the case of `Nc1ncn(C2CC(O)C(CO)O2)c(=O)n1` (stereo unspecified), the T/C (dose: 0.2 mg/kg/injection, schedule: Q01DX010 (sc), vehicle: saline) is reported as 84 % of control.
With `CC(C)[NH-].CC(C)[NH-].[Cl][Pt+2][Cl]` the T/C (dose: 37.5 mg/kg/injection, schedule: Q04DX004 (sc), vehicle: dextrose) was 58 % of control, the T/C (dose: 75.0 mg/kg/injection, schedule: Q04DX004 (sc), vehicle: dextrose) was 43 % of control and the T/C (dose: 150.0 mg/kg/injection, schedule: Q04DX004 (sc), vehicle: dextrose) was 21 % of control.
`COc1ccc(OC)c(Cc2cnc3nc(N)nc(N)c3c2C)c1` was tested, and the T/C (dose: 150.0 mg/kg/injection, schedule: Q04DX004 (sc), vehicle: water) was 116 % of control and the T/C (dose: 300.0 mg/kg/injection, schedule: Q04DX004 (sc), vehicle: water) was 54 % of control.
For `CCOC(=O)c1cn(C)c2c1C(O)=C(C(=O)OC)CC(=O)N2`, the T/C (dose: 225.0 mg/kg/injection, schedule: Q04DX004 (sc), vehicle: saline with Tween-80) was 95 % of control, the T/C (dose: 450.0 mg/kg/injection, schedule: Q04DX004 (sc), vehicle: saline with Tween-80) was 52 % of control and the T/C (dose: 1800.0 mg/kg/injection, schedule: Q04DX004 (sc), vehicle: saline with Tween-80) was 62 % of control.
In the case of `O=CC=O`, the T/C (dose: 50.0 mg/kg/injection, schedule: Q01DX010 (sc), vehicle: saline with Tween-80) is reported as 64 % of control, the T/C (dose: 100.0 mg/kg/injection, schedule: Q01DX010 (sc), vehicle: saline with Tween-80) is reported as 66 % of control and the T/C (dose: 200.0 mg/kg/injection, schedule: Q01DX010 (sc), vehicle: saline with Tween-80) is reported as 38 % of control.
